Measurements from patent US20210393570A1, “THERAPEUTICAL COMPOSITIONS FOR USE IN THE TREATMENT OF NON-MALIGNANT CONDITIONS ASSOCIATED WITH PHOSPHATIDYLINOSITOL-3-KINASE ACTIVATION: OVERGROWTH SPECTRUM, CUTANEOUS CAPILLARY MALFORMATIONS AND SEBORRHEIC KERATOSES” (UNIVERSITÉ DE BOURGOGNE, priority 2017, published 2021).

Assays:
patient A fibroblasts [1] = test: Number of cells after 48 h treatment; type: cell-based, human; conditions: compared with PI3K or mTOR inhibitors, FIG. 3C
Method: (§1) FIG. 3 Cell viability measured by XTT labeling after 48 h of treatment by 10 μM LY294002 or by increasing doses of Triptolide (A), by 4 ng/ml Rapamycin (B) or increasing doses of Kribb11. For each experiment: control 1 (white bar), control 2 (hatched bar), patient B (grey bar), patient A (black bar). n=3. O.D.=optical density. (C) Number of cells after 48 h treatment for patient A. (D) Cell proliferation measured by incorporation of BrdU. O.D.=optical density. (E) Fibroblasts apoptosis of patients and healthy donors measured by a cell death detection ELISA kit, after 24 h treatment with 100 ng/ml rapamycin, 10 μM LY294002, 3 μM Kribb11 or 10 nM Triptolide. 1 μM of staurosporine was used as an inducer of apoptosis and as positive control of the experiment, n=3. O.D.=optical density. *p<0.05, **p<0.01, ***p<0.005.

[2] = system: fibroblasts from patients; test: Cell proliferation measured by incorporation of BrdU; type: cell-based, human; conditions: FIG. 3D
Method: as §1

[3] = system: fibroblasts from patients; test: Cell viability measured by XTT labeling; type: cell-based, human; conditions: 48 h treatment, increasing doses; compared with PI3K or mTOR inhibitors; FIG. 3A, 3B
Method: as §1

patient A fibroblasts [4] = test: Quantitative PCR of 74 genes known to be regulated by HSF1; type: cell-based, human; conditions: two independent experiments, FIG. 2D
Source text: (D) Quantitative PCR analysis of the expression of 74 genes belonging to a cancer-related gene signature in patient A fibroblasts after treatment with LY294002. A code with different patterns is used to illustrate the intensity of the increase (gradient of grey) or decrease (shading pattern) of gene expression compared to untreated cells;
The Inventors have further investigated whether the PI3K/AKT/mTOR pathway is directly responsible for the activation of HSF1 in the fibroblasts of patients. The induction of PI3K/AKT activating pathway by adding insulin to normal fibroblasts is well known. […] To test this hypothesis, the expression of 74 known genes to be regulated by HSF1 have been determined after treatment with the PI3K inhibitor (FIG. 2D). In two independent experiments, the expression of 47 genes is inhibited while the expression of 11 genes is increased. The results are variable for 12 other genes (increase and decrease). […] Thus, a large part of a HSF1-dependent gene signature can be inhibited by the blocking of PI3K and thus confirms the link between these two pathways in the syndrome of segmental hypertrophy PIK3CA dependent.

[5] = system: fibroblasts of patients and healthy donors; test: Fibroblast apoptosis measured by cell death detection ELISA kit; type: cell-based; conditions: 24 h treatment; 3 μM Kribb11 or 10 nM Triptolide; FIG. 3E
Method: as §1

HSF1 = test: Immunoblotting of HSF1 phosphorylation in fibroblasts; type: cell-based, human; conditions: insulin added to normal fibroblasts; FIG. 2A
AKT = test: Immunoblotting of AKT phosphorylation in fibroblasts; type: cell-based, human; conditions: treatment with insulin; FIG. 2A

In the case of `CNc1ccc([N+](=O)[O-])c(Nc2ccc3[nH]ncc3c2)n1` [Kribb11], the “number of total cells” value (patient A fibroblasts [1]) is reported as “reduction”, the “increase in the % of cells entering the S phase” value [2] is reported as “completely blocked” and the “cell growth (cell viability, XTT)” value [3] is reported as “reduction in cell growth”.
For `O=c1cc(N2CCOCC2)oc2c(-c3ccccc3)cccc12` [LY294002], the “number of HSF1-regulated genes whose expression is increased” value (patient A fibroblasts [4]) was 11 genes, the “number of HSF1-regulated genes whose expression is inhibited” value (patient A fibroblasts [4]) was 47 genes and the “number of HSF1-regulated genes with variable results (increase and decrease)” value (patient A fibroblasts [4]) was 12 genes.
With `CC(C)[C@]12O[C@H]1[C@@H]1O[C@]13[C@]1(O[C@H]1C[C@H]1C4=C(CC[C@@]13C)C(=O)OC4)[C@@H]2O` [Triptolide] the “number of total cells” value (patient A fibroblasts [1]) was “reduction”, the “cell mortality (apoptosis)” value [5] was “not associated with an increase in cell mortality” and the “cell growth (cell viability, XTT)” value [3] was “reduction in cell growth”.
For insulin, the “phosphorylation of HSF1” value (HSF1) was “induction of the phosphorylation of HSF1” and the “phosphorylation of AKT” value (AKT) was “induces the phosphorylation of AKT”.
